Publication PMC3136713, “Health-Beneficial Phenolic Aldehyde in Antigonon leptopus Tea” (Evidence-based Complementary and Alternative Medicine : eCAM, 2010)

Key:
COX-1 [1] = target: T1, COX-1 (Ovis aries, UniProt P05979); experiment: O2 uptake cyclooxygenase assay, ram seminal vesicle COX-1; […] inhibition at […]; type: biochemical
T1 construct: gene PTGS1
T1 sequence (P05979 25-600): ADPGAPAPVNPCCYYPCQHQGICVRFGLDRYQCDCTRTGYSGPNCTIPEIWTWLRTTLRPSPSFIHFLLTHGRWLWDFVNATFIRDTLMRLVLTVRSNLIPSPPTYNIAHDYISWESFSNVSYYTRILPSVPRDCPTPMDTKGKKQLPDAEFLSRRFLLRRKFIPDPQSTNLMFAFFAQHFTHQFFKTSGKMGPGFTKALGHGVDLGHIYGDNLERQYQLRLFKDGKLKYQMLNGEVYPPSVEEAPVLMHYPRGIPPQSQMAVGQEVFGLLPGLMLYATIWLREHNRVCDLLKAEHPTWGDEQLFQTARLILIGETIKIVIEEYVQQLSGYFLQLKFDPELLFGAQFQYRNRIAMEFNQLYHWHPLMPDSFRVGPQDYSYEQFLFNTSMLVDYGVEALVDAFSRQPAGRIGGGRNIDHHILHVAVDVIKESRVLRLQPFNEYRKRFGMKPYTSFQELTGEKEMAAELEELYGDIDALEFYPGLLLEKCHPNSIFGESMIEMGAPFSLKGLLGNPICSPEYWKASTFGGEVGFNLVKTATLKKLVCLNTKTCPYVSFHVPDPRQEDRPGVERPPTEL

COX-2 [2] = target: T2, COX-2 (Homo sapiens, UniProt P35354); experiment: biochemical; settings: read-out: % inhibition at 32 nM
T2 construct: gene PTGS2
T2 sequence (P35354 18-604): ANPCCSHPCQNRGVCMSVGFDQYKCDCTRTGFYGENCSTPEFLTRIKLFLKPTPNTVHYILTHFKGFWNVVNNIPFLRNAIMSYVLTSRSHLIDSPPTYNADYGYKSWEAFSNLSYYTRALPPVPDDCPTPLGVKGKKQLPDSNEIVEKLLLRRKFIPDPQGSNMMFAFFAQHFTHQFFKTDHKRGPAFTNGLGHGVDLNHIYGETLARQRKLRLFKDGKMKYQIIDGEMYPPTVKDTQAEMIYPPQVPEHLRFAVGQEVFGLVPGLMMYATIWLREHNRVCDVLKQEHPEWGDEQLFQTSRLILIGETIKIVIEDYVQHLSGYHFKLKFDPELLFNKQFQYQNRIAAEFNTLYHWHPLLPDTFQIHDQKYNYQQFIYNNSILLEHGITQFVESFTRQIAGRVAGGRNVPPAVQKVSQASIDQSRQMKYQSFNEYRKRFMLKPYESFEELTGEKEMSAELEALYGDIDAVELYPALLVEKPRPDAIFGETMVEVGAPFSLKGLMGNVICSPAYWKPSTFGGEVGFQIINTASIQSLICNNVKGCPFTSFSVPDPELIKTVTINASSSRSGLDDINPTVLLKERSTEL

COX-1 [3] = target: T1, COX-1; experiment: O2 uptake cyclooxygenase assay, single concentration; type: biochemical; settings: for inhibition at 100 µg/mL: read-out: % inhibition at 100 μg/mL
COX-2 [4] = target: T2, COX-2; experiment: as above; type: biochemical; settings: read-out: % inhibition at 100 μg/mL

Row | Compound | inhibition at 100 µg/mL (COX-1 [3]) [%] | other results
1 | CC(=O)Oc1ccccc1C(=O)O [Aspirin] | – | % inhibition at 60 μM (COX-1 [1]): 69
2 | CS(=O)(=O)c1ccc(C2=C(c3ccccc3)C(=O)OC2)cc1 [Vioxx] | – | inhibition at 0.032 µM (COX-2 [2]): 91%
3 | O=Cc1cccc(O)c1O [compound 5, 2,3-dihydroxy benzaldehyde] | 68 | –
4 | O=Cc1cc(O)ccc1O [compound 7, 2,5-dihydroxy benzaldehyde] | – | inhibition at 100 µg/mL (COX-2 [4]): 61%
5 | O=Cc1cc(O)cc(O)c1 [compound 9, 3,5-dihydroxy benzaldehyde] | 82 | –
6 | O=Cc1c(O)cc(O)cc1O [compound 11, 2,4,6-trihydroxy benzaldehyde] | – | % inhibition at 100 μg/mL (COX-1 [3]): 86
7 | COc1ccccc1C=O [compound 14, Compound 14] | 83 | –
8 | COc1cc(C=O)cc(OC)c1 [compound 21, Compound 21] | 85 | –
